Results taken from patent US20240360194A1, “New Peptides as Potent and Selective GIP Receptor Agonists” (Sanofi, priority 2021, published 2024).
≈ marks a conversion by molar mass, not a printed value. Numbered stars: 1 amine (or outer) side, 2 acyl side, 3 side chain; on linkers, the order of the positions; unused ones are H or OH. Square brackets hold non-standard residues; d marks the D form. Side chains are listed from the residue outwards. Peptide text beside a SMILES is read from it. * marks the point of attachment. C18 diacid = O=C(O)CCCCCCCCCCCCCCCCC(=O)*; γGlu = O=C(O)[C@H](CCC(=O)[*:2])N[*:1]; αMeF = C[C@](N)(Cc1ccccc1)C(=O)O; hLeu = CC(C)CC[C@H](N)C(=O)O; AEEA = NCCOCCOCC(=O)O; Aib = CC(C)(N)C(=O)O

Tests used:
[1] = Solubility assessment (UHPLC-UV of supernatant, target 10 mg/ml); format: physicochemical; conditions: for solubility at 24 h: pH 7.4, Soluble amount
Protocol: Prior to the solubility measurement of a peptide batch, its purity was determined through UHPLC/MS.
Therefore, solutions from solid samples were prepared in a buffer system with a concentration of 10 mg/ml compound based on the previously determined % purity: • Solubility buffer system A) 100 mM phosphate buffer pH 7.4 • Solubility buffer system B) 8 mM phosphate buffer pH 7.4, 14 mg/ml propylene glycol, 5.5 mg/ml phenol • Solubility buffer system C) 100 mM phosphate buffer pH 7.4, 2.7 mg/ml m-cresol
UHPLC-UV was performed after 1 h of gentle agitation and storage at 5° C. overnight (24 h) from the supernatant, which was obtained after 15 min of centrifugation at 2500 RCF (relative centrifugal acceleration).
The different UV extinction coefficients of sample and reference peptide were calculated based on the different amino acid sequences and considered in the concentration calculation.
The analytical method used was Analytical UHPLC Method A.
Peptide samples were prepared in solubility buffer system A or C and solubility was assessed as described in Methods.

[2] = molecular target: human GLP-1 receptor (hGLP-1R) (Homo sapiens, UniProt P43220); experiment: In vitro cellular cAMP assay for GLP-1 receptor efficacy (HEK-293 cell line over-expressing receptor); format: cell-based; conditions: HEK-293, 0.1% BSA
human GIP receptor = molecular target: T1, human GIP receptor (Homo sapiens, UniProt P48546); experiment: In vitro cellular cAMP assay for GIP receptor efficacy (human adipocytes); format: cell-based; conditions: for EC50: read-out: hGIPR EC50; for Emax: read-out: hGIPR Emax
T1 construct: human adipocytes endogenously expressing the human GIP receptor; host or cells: human preadipocytes (Lonza) differentiated to adipocytes
T1 sequence (P48546 22-466): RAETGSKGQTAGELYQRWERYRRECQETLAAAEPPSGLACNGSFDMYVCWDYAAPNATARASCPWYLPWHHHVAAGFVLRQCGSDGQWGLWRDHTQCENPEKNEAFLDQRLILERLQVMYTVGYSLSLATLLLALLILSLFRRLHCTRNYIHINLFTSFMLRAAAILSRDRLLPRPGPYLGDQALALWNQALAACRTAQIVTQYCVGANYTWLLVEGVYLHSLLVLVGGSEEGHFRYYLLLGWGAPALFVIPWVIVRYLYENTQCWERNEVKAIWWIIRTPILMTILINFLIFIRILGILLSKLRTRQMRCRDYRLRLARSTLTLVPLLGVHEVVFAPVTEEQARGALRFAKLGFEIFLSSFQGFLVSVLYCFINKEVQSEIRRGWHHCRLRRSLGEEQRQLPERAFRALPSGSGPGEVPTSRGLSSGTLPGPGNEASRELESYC
Protocol: For this, one vial of human preadipocytes (˜10^6 cells; Lonza) was thawed in a T-75 cell culture dish. The cells were cultivated at 37° C., 5% CO2, 95% humidity in Preadipocyte Growth Medium with Supplement Mix from Promo Cell.
After 3 days, the cells were washed with PBS and 1.5 ml Trypsin, incubated for 4 min, then resuspended in medium, centrifugated for 10 min @ 300 rcf RT, resuspended again and distributed to four T-75 cell culture dishes. Again, the cells were cultivated at 37° C., 5% CO2, 95% humidity.
After 5 days, the cells were washed with PBS and 1.5 ml Trypsin, incubated for 4 min, then resuspended in medium, centrifugated for 10 min @ 300 rcf RT, resuspended again and sawn in T-75 dishes (2.5×10^6 cells per dish) in 15 ml Differentiation medium each.
The differentiation medium had the following composition: DMEM (Gibco), Ham's F10 (Gibco), 15 mM HEPES (Gibco), 3% FCS (PAA), 33 μM biotin (Sigma-Aldrich), 17 μM Pantothenate (Sigma-Aldrich), 0.1 μM human insulin (Sigma-Aldrich), 1 μM dexamethason (Sigma-Aldrich), 0.1 μM PPARgamma agonist (#R2408, Sigma-Aldrich), 0.6×Anti-Anti (#15240, ThermoFisher), 200 μM IBMX (AppliChem), and 0.01 μM L-thyroxine (Sigma-Aldrich).
After 6 days of differentiation, 5000 cells per well were dispensed on a 96-well plate (#CLS3694 from Corning®, Sigma-Aldrich). For measurement of cAMP generation, 25 μL of test compound was added to each well of the 96-well plate, followed by incubation for 30 min at room temperature.
The cAMP generated following test compound stimulation was determined using a kit from Cisbio Corp. based on HTRF (Homogenous Time Resolved Fluorescence). The cAMP assay was performed according to manufacturer's instructions (Cisbio).
The cAMP content of cells was determined using a kit from Cisbio Corp. based on HTRF (Homogenous Time Resolved Fluorescence).
After addition of HTRF reagents diluted in lysis buffer (kit components), the plates were incubated for 1 h, followed by measurement of the fluorescence ratio at 665/620 nm.

[3] = molecular target: T2, human GIP receptor (hGIPR) (Homo sapiens, UniProt P48546); experiment: Binding assay, displacement of [125I]GIP from HEK-293 membranes over-expressing GIPR (SPA); conditions: [125I]GIP displacement
T2 sequence (P48546 22-466): T1 sequence (P48546 22-466)
Protocol: (1) Preparation of Membranes from HEK-293 Cells Over-Expressing GIPR or GLP-1R
HEK-293 cells recombinantly over-expressing GIPR or GLP-1R were grown to 50% confluency, washed with warm 1×PBS (Gibco) and detached in HEPES/EDTA-buffer (100 mM HEPES pH 7.5, 5 mM EDTA). Cells were harvested by centrifugation at 4° C. and 3000×g and the pellets were stored at −80° C. until further processing.
After thawing on ice, pellets were resuspended in HEPES/EDTA-buffer and homogenized on ice for 1 min using Ultra-Turray T25. After subsequent sonification the cell debris was removed by centrifugation at 1000×g and 4° C. Supernatants were then ultra-centrifuged at 100000×g and 4° C. under vacuum for 30 min. Pellets were resuspended in HEPES/EDTA/NaCl-buffer (20 mM HEPES, 1 mM EDTA, 150 mM NaCl; add 1 Complete Mini Protease inhibitor cocktail to 10 ml buffer) and protein content was determined via BCA-Protein assay.
(2) Measurement of Binding Activity of Test Compounds to Human GIPR or GLP-1R

Chain of human GLP-1 receptor (hGLP-1R) (P43220 24-463): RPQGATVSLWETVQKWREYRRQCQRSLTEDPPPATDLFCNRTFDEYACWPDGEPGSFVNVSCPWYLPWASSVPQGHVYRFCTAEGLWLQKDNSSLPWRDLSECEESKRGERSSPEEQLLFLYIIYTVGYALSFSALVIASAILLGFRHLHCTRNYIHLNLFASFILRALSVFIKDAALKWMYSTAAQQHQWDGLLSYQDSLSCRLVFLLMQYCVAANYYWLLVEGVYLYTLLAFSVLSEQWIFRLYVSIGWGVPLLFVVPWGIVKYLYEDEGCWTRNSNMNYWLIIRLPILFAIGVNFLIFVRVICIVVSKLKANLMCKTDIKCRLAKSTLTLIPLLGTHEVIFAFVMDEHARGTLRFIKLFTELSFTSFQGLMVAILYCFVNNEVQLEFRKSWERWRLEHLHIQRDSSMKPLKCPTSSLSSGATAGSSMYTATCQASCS

With `CC[C@H](C)[C@H](NC(=O)[C@H](CCCNC(=N)N)NC(=O)[C@H](CC(=O)O)NC(=O)[C@H](CCCCNC(=O)COCCOCCNC(=O)COCCOCCNC(=O)CC[C@H](NC(=O)CCCCCCCCCCCCCCCCC(=O)O)C(=O)O)NC(=O)C(C)(C)NC(=O)[C@@H](NC(=O)[C@H](CO)NC(=O)[C@H](CC(C)C)NC(=O)[C@H](CC(=O)O)NC(=O)[C@H](CO)NC(=O)[C@@H](NC(=O)[C@H](Cc1ccccc1)NC(=O)[C@@H](NC(=O)CNC(=O)[C@H](CCC(=O)O)NC(=O)C(C)(C)NC(=O)[C@@H](N)Cc1ccc(O)cc1)[C@@H](C)O)[C@@H](C)CC)[C@@H](C)CC)C(=O)N[C@@H](Cc1c[nH]cn1)C(=O)N[C@@H](CCC(N)=O)C(=O)NC(C)(C)C(=O)N[C@@H](CCC(=O)O)C(=O)N[C@@H](Cc1ccccc1)C(=O)N[C@H](C(=O)N[C@@H](CCC(=O)O)C(=O)N[C@@H](Cc1c[nH]c2ccccc12)C(=O)N[C@@H](CC(C)C)C(=O)N[C@@H](CC(C)C)C(=O)N[C@@H](C)C(=O)N[C@@H](CCC(N)=O)C(=O)N[C@@H](CCCNC(=N)N)C(=O)N1CCC[C@H]1C(=O)N[C@@H](CO)C(=O)N[C@@H](CO)C(=O)NCC(=O)N[C@@H](C)C(=O)N1CCC[C@H]1C(=O)N1CCC[C@H]1C(=O)N1CCC[C@H]1C(=O)N[C@@H](CO)C(N)=O)[C@@H](C)CC` [SEQ ID NO: 30, H2N-Y-Aib-E-G-T-F-I-S-D-L-S-I-Aib-K[{AEEA}2-gGlu-C18OH]-D-R-I-H-Q-Aib-E-F-I-E-W-L-L-A-Q-R-P-S-S-G-A-P-P-P-S-NH2] (H-Y[Aib]EGTFISDLSI[Aib]K([AEEA-AEEA-γGlu-C18 diacid])DRIHQ[Aib]EFIEWLLAQRPSSGAPPPS-NH2) the solubility at 24 h [1] was 8400 µg/mL (≈ 1660 µM), the EC50 [2] was over 10000 pM and the EC50 (human GIP receptor) was 500 pM. For the same molecule, the Emax (human GIP receptor) was 138% and the IC50 [3] was 100 pM.
Molecule `CC[C@H](C)[C@H](NC(=O)[C@H](CCCNC(=N)N)NC(=O)[C@H](CC(=O)O)NC(=O)[C@H](CCCCNC(=O)COCCOCCNC(=O)COCCOCCNC(=O)CC[C@H](NC(=O)CCCCCCCCCCCCCCCCC(=O)O)C(=O)O)NC(=O)C(C)(C)NC(=O)[C@@H](NC(=O)[C@H](CO)NC(=O)[C@H](CC(C)C)NC(=O)[C@H](CC(=O)O)NC(=O)[C@H](CO)NC(=O)[C@@H](NC(=O)[C@H](Cc1ccccc1)NC(=O)[C@@H](NC(=O)CNC(=O)[C@H](CCC(=O)O)NC(=O)C(C)(C)NC(=O)[C@@H](N)Cc1ccc(O)cc1)[C@@H](C)O)[C@@H](C)CC)[C@@H](C)CC)C(=O)N[C@@H](Cc1c[nH]cn1)C(=O)N[C@@H](CCC(N)=O)C(=O)N[C@@H](CCC(=O)O)C(=O)N[C@@H](CCC(=O)O)C(=O)N[C@@](C)(Cc1ccccc1)C(=O)N[C@H](C(=O)N[C@@H](CCC(=O)O)C(=O)N[C@@H](Cc1c[nH]c2ccccc12)C(=O)N[C@@H](CC(C)C)C(=O)N[C@@H](CC(C)C)C(=O)N[C@@H](C)C(=O)N[C@@H](CCC(N)=O)C(=O)NCC(=O)N1CCC[C@H]1C(=O)N[C@@H](CO)C(=O)N[C@@H](CO)C(=O)NCC(=O)N[C@@H](C)C(=O)N1CCC[C@H]1C(=O)N1CCC[C@H]1C(=O)N1CCC[C@H]1C(=O)N[C@@H](CO)C(N)=O)[C@@H](C)CC` [SEQ ID NO: 32, H2N-Y-Aib-E-G-T-F-I-S-D-L-S-I-Aib-K[{AEEA}2-gGlu-C18OH]-D-R-I-H-Q-E-E-Mph-I-E-W-L-L-A-Q-G-P-S-S-G-A-P-P-P-S-NH2] (H-Y[Aib]EGTFISDLSI[Aib]K([AEEA-AEEA-γGlu-C18 diacid])DRIHQEE[αMeF]IEWLLAQGPSSGAPPPS-NH2) has a solubility at 24 h [1] of 8200 µg/mL (≈ 1630 µM), an EC50 [2] of over 10000 pM and an EC50 (human GIP receptor) of 600 pM. The Emax (human GIP receptor) was 109% and the IC50 [3] was 900 pM.
For `CC[C@H](C)[C@H](NC(=O)[C@H](Cc1ccccc1)NC(=O)[C@H](CCC(=O)O)NC(=O)[C@H](CCC(=O)O)NC(=O)[C@H](CCC(N)=O)NC(=O)[C@H](Cc1c[nH]cn1)NC(=O)[C@@H](NC(=O)[C@H](CCCNC(=N)N)NC(=O)[C@H](CC(=O)O)NC(=O)[C@H](CCCCNC(=O)COCCOCCNC(=O)COCCOCCNC(=O)CC[C@H](NC(=O)CCCCCCCCCCCCCCCCC(=O)O)C(=O)O)NC(=O)C(C)(C)NC(=O)[C@@H](NC(=O)[C@H](CO)NC(=O)[C@H](CCC(C)C)NC(=O)[C@H](CC(=O)O)NC(=O)[C@H](CO)NC(=O)[C@@H](NC(=O)[C@H](Cc1ccccc1)NC(=O)[C@@H](NC(=O)CNC(=O)[C@H](CCC(=O)O)NC(=O)C(C)(C)NC(=O)[C@@H](N)Cc1ccc(O)cc1)[C@@H](C)O)[C@@H](C)CC)[C@@H](C)CC)[C@@H](C)CC)C(=O)N[C@@H](CCC(=O)O)C(=O)N[C@@H](Cc1c[nH]c2ccccc12)C(=O)N[C@@H](CC(C)C)C(=O)N[C@@H](CC(C)C)C(=O)N[C@@H](C)C(=O)N[C@@H](CCC(N)=O)C(=O)NCC(=O)N1CCC[C@H]1C(=O)N[C@@H](CO)C(=O)N[C@@H](CO)C(=O)NCC(=O)N[C@@H](C)C(=O)N1CCC[C@H]1C(=O)N1CCC[C@H]1C(=O)N1CCC[C@H]1C(=O)N[C@@H](CO)C(N)=O` [SEQ ID NO: 34, H2N-Y-Aib-E-G-T-F-I-S-D-Hol-S-I-Aib-K[{AEEA}2-gGlu-C18OH]-DRIHQEEFIEWLLAQGPSSGAPPPS-NH2] (H-Y[Aib]EGTFISD[hLeu]SI[Aib]K([AEEA-AEEA-γGlu-C18 diacid])DRIHQEEFIEWLLAQGPSSGAPPPS-NH2), the Soluble amount ([1]; 24 h, pH 7.4) was over 8.7 mg/mL, the solubility at 24 h [1] was over 9200 µg/mL and the EC50 [2] was over 10000 pM. The EC50 (human GIP receptor) was 500 pM, the Emax (human GIP receptor) was 112% and the IC50 [3] was 300 pM.
